Test results as given in patent publication US20180244660A1, “CYCLOPROPYLDERIVATIVES AND THEIR USE AS KINASE INHIBITORS” (Karyopharm Therapeutics Inc., priority 2015, published 2018).

Legend:
[1] = test system: Z138 cells; test: MTT cell proliferation assay, Z138 cells; assay type: cell-based, human; conditions: Homo sapiens, Z-138, incubation approximately 64-72 hours
Protocol: (§1) The MTT cell proliferation assay was used to study the cytotoxic properties of the compounds. The assay was performed according to the method described by Roche Molecular Biochemicals, with minor modifications. The assay is based on the cleavage of the tetrazolium salt, MTT, in the presence of an electron-coupling reagent. The water-insoluble formazan salt produced must be solubilized in an additional step. Cells grown in a 96-well tissue culture plate were incubated with the MTT solution for approximately 4 hours. After this incubation period, a water-insoluble formazan dye formed. After solubilization, the formazan dye was quantitated using a scanning multi-well spectrophotometer (ELISA reader). […] The cells were seeded at 5,000-10,000 cells in each well of 96-well plate in 100 μL of fresh culture medium and were allowed to attach overnight. The stock solutions of the compounds were diluted in 100 μL cell culture medium to obtain eight concentrations of each test compound, ranging from 1 nM to 30 μM. […] All optical densities were measured at 490 nm using a Vmax Kinetic Microplate Reader (Molecular Devices). In most cases, the assay was performed in duplicate and the results were presented as a mean percent inhibition to the negative control+SE. The following formula was used to calculate the percent of inhibition: Inhibition (%)=(1−(ODo/OD))×100.
(§2) The compounds were tested against MS751, Z138 and 3T3 cells. The MS751 cell line is derived from a metastasis to lymph node of human cervix from a patient diagnosed with squameous cell carcinoma of the cervix. The Z138 cell line is a mature B-cell acute lymphoblastic leukemia cell line derived from a patient with chronic lumphocytic leukemia. 3T3 cells are standard fibroblast cells; they were originally isolated from Swiss mouse embryo tissue.

[2] = test system: 3T3 cells; test: MTT cell proliferation assay, 3T3 cells; assay type: cell-based, mouse; conditions: Mus musculus, NIH3T3; 3T3 fibroblast cells; incubation approximately 64-72 hours
Protocol: as §1, §2

[3] = test system: MS751 cells; test: MTT cell proliferation assay, MS751 cells; assay type: cell-based, human; conditions: Homo sapiens, incubation approximately 64-72 hours, read-out: MTT Assay IC50 MS 751
Protocol: as §1, §2

Q: What does the source list for `Nc1ccc([C@H]2C[C@@H]2C(=O)NCc2cc3cc(-c4ccc(C(=O)N5CCNCC5)cc4)cc(-c4ccc(F)cc4)c3o2)cn1` (stereo in doubt) [Compound K027, (1S,2S)-2-(6-aminopyridin-3-yl)-N—((7-(4-fluorophenyl)-5-(4-(piperazine-1-carbonyl)phenyl)benzofuran-2-yl)methyl)cyclopropanecarboxamide]?
A: IC50 [1]: < 1 µM; IC50 [2]: > 10 µM

Q: `Nc1ccc(C2CC2C(=O)NCCCOc2cc(-c3ccc(C(=O)N4CCC(F)(F)CC4)cc3)cc(C(F)(F)F)c2)cn1` (centres unmarked) [Compound K002, 2-(6-aminopyridin-3-yl)-N—(3-(4′-(4,4-difluoropiperidine-1-carbonyl)-5-(trifluoromethyl)biphenyl-3-yloxy)propyl)cyclopropanecarboxamide] was tested. Which IC50 [3] did it give?
A: < 1 µM

Q: What about the IC50 [1] of the same molecule?
A: < 1 µM

Q: What about the IC50 [2] of the same molecule?
A: 1 to 5 µM

Q: Which IC50 [3] does the source give for `Nc1ccc(C2CC2C(=O)NCCOc2ccc(-c3ccc(C(=O)N4CCC(F)(F)CC4)cc3)cc2-c2ccc(F)cc2F)cn1` (centres unmarked) [Compound K003, 2-(6-aminopyridin-3-yl)-N—(2-(3-(2,4-difluorophenyl)-4′-(4,4-difluoropiperidine-1-carbonyl)biphenyl-4-yloxy)ethyl)cyclopropanecarboxamide] here?
A: < 1 µM

Q: And the IC50 [1]?
A: < 1 µM

Q: What about the IC50 [2] of the same molecule?
A: 5 to 10 µM

Q: Which results are given for `Nc1ccc(C2CC2C(=O)NCc2cc3cc(-c4ccc(C(=O)N5CCC(F)(F)CC5)cc4F)cc(-c4ccc(F)cc4)c3o2)cn1` (centres unmarked) [Compound K004, 2-(6-aminopyridin-3-yl)-N—((5-(4-(4,4-difluoropiperidine-1-carbonyl)-2-fluorophenyl)-7-(4-fluorophenyl)benzofuran-2-yl)methyl)cyclopropanecarboxamide]?
A: IC50 [3]: < 1 µM; IC50 [1]: < 1 µM; IC50 [2]: > 10 µM

Q: `Nc1ccc([C@H]2C[C@@H]2C(=O)NCCCOc2cc(-c3ccc(C(=O)N4CCC(F)(F)CC4)cc3)cc(C(F)(F)F)c2)cn1` [Compound K005, (1S,2S)-2-(6-aminopyridin-3-yl)-N—(3-(4′-(4,4-difluoropiperidine-1-carbonyl)-5-(trifluoromethyl)biphenyl-3-yloxy)propyl)cyclopropanecarboxamide] was tested. Which IC50 [3] did it give?
A: < 1 µM

Q: And the IC50 [1]?
A: < 1 µM

Q: What about the IC50 [2] of the same molecule?
A: < 1 µM

Q: For `Nc1ccc([C@@H]2C[C@H]2C(=O)NCCCOc2cc(-c3ccc(C(=O)N4CCC(F)(F)CC4)cc3)cc(C(F)(F)F)c2)cn1` [Compound K006, (1R,2R)-2-(6-aminopyridin-3-yl)-N—(3-(4′-(4,4-difluoropiperidine-1-carbonyl)-5-(trifluoromethyl)biphenyl-3-yloxy)propyl)cyclopropanecarboxamide], which IC50 [3] is on record?
A: < 1 µM

Q: What about the IC50 [1] of the same molecule?
A: < 1 µM

Q: What about the IC50 [2] of the same molecule?
A: 1 to 5 µM

Q: For `Nc1ccc([C@H]2C[C@@H]2C(=O)NCc2cc3cc(-c4ccc(C(=O)N5CCC(F)(F)CC5)cc4)cc(C(F)(F)F)c3o2)cn1` [Compound K007, (1S,2S)-2-(6-aminopyridin-3-yl)-N—((5-(4-(4,4-difluoropiperidine-1-carbonyl)phenyl)-7-(trifluoromethyl)benzofuran-2-yl)methyl)cyclopropanecarboxamide], which IC50 [3] is on record?
A: 1 to 5 µM

Q: And the IC50 [1]?
A: 1 to 5 µM

Q: What about the IC50 [2] of the same molecule?
A: > 10 µM

Q: How did the IC50 [3] turn out when `Nc1ccc([C@@H]2C[C@H]2C(=O)NCc2cc3cc(-c4ccc(C(=O)N5CCC(F)(F)CC5)cc4)cc(C(F)(F)F)c3o2)cn1` [Compound K008, (1R,2R)-2-(6-Aminopyridin-3-yl)-N—((5-(4-(4,4-difluoropiperidine-1-carbonyl)phenyl)-7-(trifluoromethyl)benzofuran-2-yl)methyl)cyclopropanecarboxamide] was run?
A: > 10 µM

Q: And the IC50 [1]?
A: 1 to 5 µM

Q: What about the IC50 [2] of the same molecule?
A: > 10 µM

Q: How did the IC50 [3] turn out when `Nc1ccc(C2CC2C(=O)NCc2ccc(-c3ccc(-c4ccc(C(=O)N5CCC(F)(F)CC5)cn4)cc3C(F)(F)F)o2)cn1` (centres unmarked) [Compound K009, 2-(6-aminopyridin-3-yl)-N—((5-(4-(5-(4,4-difluoropiperidine-1-carbonyl)pyridin-2-yl)-2-(trifluoromethyl)phenyl)furan-2-yl)methyl)cyclopropanecarboxamide] was run?
A: < 1 µM

Q: What about the IC50 [1] of the same molecule?
A: < 1 µM

Q: What about the IC50 [2] of the same molecule?
A: 5 to 10 µM

Q: Which results are given for `Nc1ccc([C@H]2C[C@@H]2C(=O)NCc2cc3cc(-c4ccc(C(=O)N5CCC(F)(F)CC5)cc4)cc(-c4ccc(F)cc4F)c3o2)cn1` [Compound K010, (1S,2S)-2-(6-aminopyridin-3-yl)-N—((7-(2,4-difluorophenyl)-5-(4-(4,4-difluoropiperidine-1-carbonyl)phenyl)benzofuran-2-yl)methyl)cyclopropanecarboxamide]?
A: IC50 [3]: < 1 µM; IC50 [1]: < 1 µM; IC50 [2]: 1 to 5 µM

Q: What does the source list for `Nc1ccc([C@H]2C[C@@H]2C(=O)NCc2cc3cc(-c4ccc(C(=O)N5CCC(F)(F)CC5)cc4)cc(-c4ccc(F)cc4)c3o2)cn1` [Compound K011, (1S,2S)-2-(6-aminopyridin-3-yl)-N—((5-(4-(4,4-difluoropiperidine-1-carbonyl)phenyl)-7-(4-fluorophenyl)benzofuran-2-yl)methyl)cyclopropanecarboxamide]?
A: IC50 [3]: < 1 µM; IC50 [1]: < 1 µM; IC50 [2]: > 10 µM

Q: What does the source list for `Nc1ccc([C@H]2C[C@@H]2C(=O)NCc2cc3cc(-c4ccc(C(=O)N5CCC(F)(F)CC5)cn4)cc(-c4ccc(F)cc4)c3o2)cn1` [Compound K012, (1S,2S)-2-(6-aminopyridin-3-yl)-N—((5-(5-(4,4-difluoropiperidine-1-carbonyl)pyridin-2-yl)-7-(4-fluorophenyl)benzofuran-2-yl)methyl)cyclopropanecarboxamide]?
A: IC50 [3]: < 1 µM; IC50 [1]: < 1 µM; IC50 [2]: 1 to 5 µM

Q: `Nc1ccc([C@H]2C[C@@H]2C(=O)NCc2cc3cc(-c4ccc(C(=S)N5CCC(F)(F)CC5)cc4)cc(-c4ccc(F)cc4)c3o2)cn1` [Compound K013, (1S,2S)-2-(6-aminopyridin-3-yl)-N—((5-(4-(4,4-difluoropiperidine-1-carbonothioyl)phenyl)-7-(4-fluorophenyl)benzofuran-2-yl)methyl)cyclopropanecarboxamide] was tested. Which IC50 [3] did it give?
A: < 1 µM

Q: And the IC50 [1]?
A: < 1 µM

Q: And the IC50 [2]?
A: 1 to 5 µM

Q: Which results are given for `Nc1ccc([C@H]2C[C@@H]2C(=O)NCc2cc3cc(-c4ccc(C(=O)N5CCC(F)(F)CC5)cc4)cc(-c4cccc(F)c4)c3o2)cn1` [Compound K014, (1S,2S)-2-(6-aminopyridin-3-yl)-N—((5-(4-(4,4-difluoropiperidine-1-carbonyl)phenyl)-7-(3-fluorophenyl)benzofuran-2-yl)methyl)cyclopropanecarboxamide]?
A: IC50 [3]: < 1 µM; IC50 [1]: < 1 µM; IC50 [2]: 1 to 5 µM

Q: How did the IC50 [3] turn out when `Nc1ccc([C@H]2C[C@@H]2C(=O)NCc2cc3cc(-c4ccc(C(=O)N5CCC(F)(F)CC5)cc4)cc(-c4ccc(F)cc4)c3s2)cn1` [Compound K015, (1S,2S)-2-(6-aminopyridin-3-yl)-N—((5-(4-(4,4-difluoropiperidine-1-carbonyl)phenyl)-7-(4-fluorophenyl)benzo[b]thiophen-2-yl)methyl)cyclopropanecarboxamide] was run?
A: 1 to 5 µM

Q: And the IC50 [1]?
A: 1 to 5 µM

Q: And the IC50 [2]?
A: > 10 µM

Q: For `Nc1ccc([C@H]2C[C@@H]2C(=O)NCc2cc3cc(-c4ccc(C(=O)N5CC(Cl)C5)cc4)cc(-c4ccc(F)cc4)c3o2)cn1` [Compound K016, (1S,2S)-2-(6-aminopyridin-3-yl)-N—((5-(4-(3-chloroazetidine-1-carbonyl)phenyl)-7-(4-fluorophenyl)benzofuran-2-yl)methyl)cyclopropanecarboxamide], which IC50 [3] is on record?
A: < 1 µM

Q: And the IC50 [1]?
A: < 1 µM

Q: And the IC50 [2]?
A: 1 to 5 µM

Q: For `Nc1ccc([C@H]2C[C@@H]2C(=O)NCc2cc3cc(-c4ccc(C(=O)N5CCC(F)(F)C5)cc4)cc(-c4ccc(F)cc4)c3o2)cn1` [Compound K017, (1S,2S)-2-(6-aminopyridin-3-yl)-N—((5-(4-(3,3-difluoropyrrolidine-1-carbonyl)phenyl)-7-(4-fluorophenyl)benzofuran-2-yl)methyl)cyclopropanecarboxamide], which IC50 [3] is on record?
A: < 1 µM

Q: What about the IC50 [1] of the same molecule?
A: < 1 µM

Q: And the IC50 [2]?
A: 1 to 5 µM

Q: What does the source list for `Nc1ccc([C@H]2C[C@@H]2C(=O)NCc2cc3cc(-c4ccc(C(=O)N5CC(F)(F)C5)cc4)cc(-c4ccc(F)cc4)c3o2)cn1` [Compound K018, (1S,2S)-2-(6-aminopyridin-3-yl)-N—((5-(4-(3,3-difluoroazetidine-1-carbonyl)phenyl)-7-(4-fluorophenyl)benzofuran-2-yl)methyl)cyclopropanecarboxamide]?
A: IC50 [3]: < 1 µM; IC50 [1]: < 1 µM; IC50 [2]: 1 to 5 µM

Q: Which IC50 [3] does the source give for `Nc1ccc([C@H]2C[C@@H]2C(=O)NCCc2cc3cc(-c4ccc(C(=O)N5CCC(F)(F)CC5)cc4)cc(-c4ccc(F)cc4)c3o2)cn1` [Compound K019, (1S,2S)-2-(6-aminopyridin-3-yl)-N—(2-(5-(4-(4,4-difluoropiperidine-1-carbonyl)phenyl)-7-(4-fluorophenyl)benzofuran-2-yl)ethyl)cyclopropanecarboxamide] here?
A: < 1 µM

Q: What about the IC50 [1] of the same molecule?
A: < 1 µM

Q: What about the IC50 [2] of the same molecule?
A: 1 to 5 µM
